pIC50: −log10 of the molar value.
Columns and labels:
Assay in all cases: NCI 60 cell-line test
Format in all cases: cell-based, human
BT-549 = BT-549 (Breast Cancer)
Protocol: (§1) Methodology: The NCI conducted a test of the MT103 drug against 60 human cell lines, with a minimum of five concentrations of MT103 at 10-fold dilutions. A 48 hour continuous drug exposure was used, and a sulforhodamine B (SRB) protein assay was used to estimate cell viability and growth. The human tumor cell lines of the cancer screening panel were grown in RPMI 1640 medium containing 5% fetal bovine serum and 2 mM L-glutamine. Cells were inoculated into 96 well microtiter plates in 100 μL at plating densities ranging from 5,000 to 40,000 cells/well depending on the doubling time of individual cell lines. After cell inoculation, the microtiter plates are incubated at 37° C., 5% CO2, 95% air, and 100% relative humidity for 24 h prior to addition of experimental drugs.
(§2) After 24 h, two plates of each cell line were fixed in situ with TCA, to represent a measurement of the cell population for each cell line at the time of drug addition (Tz). MT103 was solubilized in dimethyl sulfoxide at 400-fold the desired final maximum test concentration and stored frozen prior to use. At the time of drug addition, an aliquot of frozen concentrate was thawed and diluted to twice the desired final maximum test concentration with complete medium containing 50 μg/ml gentamicin. Additional four, 10-fold or ½ log serial dilutions were made to provide a total of five drug concentrations plus control. Aliquots of 100 μl of these different drug dilutions were added to the appropriate microtiter wells already containing 100 μl of medium, resulting in the required final drug concentrations.
(§3) Following drug addition, the plates were incubated for an additional 48 h at 37° C., 5% CO2, 95% air, and 100% relative humidity. For adherent cells, the assay was terminated by the addition of cold TCA. Cells were fixed in situ by the gentle addition of 50 μl of cold 50% (w/v) TCA (final concentration, 10% TCA) and incubated for 60 minutes at 4° C. The supernatant was discarded, and the plates were washed five times with tap water and air dried. Sulforhodamine B (SRB) solution (100 μl) at 0.4% (w/v) in 1% acetic acid was added to each well, and plates were incubated for 10 minutes at room temperature. After staining, unbound dye was removed by washing five times with 1% acetic acid and the plates were air-dried. Bound stain was subsequently solubilized with 10 mM trizma base, and the absorbance was read on an automated plate reader at a wavelength of 515 nm. For suspension cells, the methodology was the same except that the assay was terminated by fixing settled cells at the bottom of the wells by gently adding 50 μl of 80% TCA (final concentration, 16% TCA). Using the seven absorbance measurements (time zero, (Tz), control growth, (C), and test growth in the presence of drug at the five concentration levels (Ti)), the percentage growth was calculated at each of the drug concentrations levels. Percentage growth inhibition was calculated as:
(§4) [(Ti-Tz)/(C-Tz)]×100 for concentrations for which Ti>/=Tz
(§5) [(Ti-Tz)/Tz]×100 for concentrations for which Ti<Tz.
(§6) Three dose response parameters were calculated for each experimental agent. Growth inhibition of 50% (GI50) was calculated from [(Ti-Tz)/(C-Tz)]×100=50, which is the drug concentration resulting in a 50% reduction in the net protein increase (as measured by SRB staining) in control cells during the drug incubation. The drug concentration resulting in total growth inhibition (TGI) was calculated from Ti=Tz. The LC50 (concentration of drug resulting in a 50% reduction in the measured protein at the end of the drug treatment as compared to that at the beginning) indicating a net loss of cells following treatment was calculated from [(Ti-Tz)/Tz]×100=−50. Values were calculated for each of these three parameters if the level of activity is reached; however, if the effect was not reached or was exceeded, the value for that parameter was expressed as greater or less than the maximum or minimum concentration tested.

COLO 205 = COLO 205 (Colon Cancer)
Protocol: as §1, §2, §3, §4, §5, §6

EKVX = EKVX (Non-Small Cell Lung Cancer)
Protocol: as §1, §2, §3, §4, §5, §6

HOP-92 = test system: HOP-92
Protocol: as §1, §2, §3, §4, §5, §6

K-562 = K-562 (Leukemia)
Protocol: as §1, §2, §3, §4, §5, §6

OVCAR-4 = OVCAR-4 (Ovarian Cancer)
Protocol: as §1, §2, §3, §4, §5, §6

OVCAR-5 = OVCAR-5 (Ovarian Cancer)
Protocol: as §1, §2, §3, §4, §5, §6

PC-3 = PC-3 (Prostate Cancer)
Protocol: as §1, §2, §3, §4, §5, §6

RXF 393 = RXF 393 (Renal Cancer)
Protocol: as §1, §2, §3, §4, §5, §6

SF-268 = SF-268 (CNS Cancer)
Protocol: as §1, §2, §3, §4, §5, §6

SK-OV-3 = SK-OV-3 (Ovarian Cancer)
Protocol: as §1, §2, §3, §4, §5, §6

SN12C = SN12C (Renal Cancer)
Protocol: as §1, §2, §3, §4, §5, §6

SW-620 = SW-620 (Colon Cancer)
Protocol: as §1, §2, §3, §4, §5, §6

T-47D = T-47D (Breast Cancer)
Protocol: as §1, §2, §3, §4, §5, §6

UACC-257 = UACC-257 (Melanoma)
Protocol: as §1, §2, §3, §4, §5, §6

[1] = read-out: LC50 (the source's name)

Compound: CC1(C)C2CC[C@@]1(CS(=O)(=O)N(C1CCCCC1)C1CCCCC1)C(O)C2 (stereo partly shown) [MT103]
- TGI (BT-549): >1.00E−04
- pIC50 (BT-549; read-out: G150): 4.23
- CC50 (BT-549; [1]): > 100 µM
- TGI (COLO 205): 4.98E−05
- pIC50 (COLO 205; read-out: G150): 4.67
- CC50 (COLO 205; [1]): > 100 µM
- TGI (EKVX): 9.83E−05
- pIC50 (EKVX; read-out: G150): 4.50
- CC50 (EKVX; [1]): > 100 µM
- TGI (HOP-92; HOP-92 (Non-Small Cell Lung Cancer)): 3.16E−05
- pIC50 (HOP-92; HOP-92 (Non-Small Cell Lung Cancer), read-out: G150): 5.56
- CC50 (HOP-92; HOP-92 (Non-Small Cell Lung Cancer), read-out: LC50 (the source's name)): > 100 µM
- −logGI50 value (HOP-92; HOP-92, as tested by the NCI, FIG. 1): 5.6
- TGI (K-562): >1.00E−04
- pIC50 (K-562; read-out: G150): 4.57
- CC50 (K-562; [1]): > 100 µM
- TGI (OVCAR-4): >1.00E−04
- pIC50 (OVCAR-4; read-out: G150): 4.52
- CC50 (OVCAR-4; [1]): > 100 µM
- TGI (OVCAR-5): 5.70E−05
- pIC50 (OVCAR-5; read-out: G150): 4.63
- CC50 (OVCAR-5; [1]): > 100 µM
- TGI (PC-3): >1.00E−04
- pIC50 (PC-3; read-out: G150): 4.56
- CC50 (PC-3; [1]): > 100 µM
- TGI (RXF 393): 9.77E−05
- pIC50 (RXF 393; read-out: G150): 4.62
- CC50 (RXF 393; [1]): > 100 µM
- TGI (SF-268): >1.00E−04
- pIC50 (SF-268; read-out: G150): 4.45
- CC50 (SF-268; [1]): > 100 µM
- TGI (SK-OV-3): >1.00E−04
- pIC50 (SK-OV-3; read-out: G150): 4.08
- CC50 (SK-OV-3; [1]): > 100 µM
- TGI (SN12C): >1.00E−04
- pIC50 (SN12C; read-out: G150): 4.48
- CC50 (SN12C; [1]): > 100 µM
- TGI (SW-620): >1.00E−04
- pIC50 (SW-620; read-out: G150): 4.54
- CC50 (SW-620; [1]): > 100 µM
- TGI (T-47D): >1.00E−04
- pIC50 (T-47D; read-out: G150): 4.21
- CC50 (T-47D; [1]): > 100 µM
- TGI (UACC-257): 9.53E−05
- pIC50 (UACC-257; read-out: G150): 4.55
- CC50 (UACC-257; [1]): > 100 µM

Reference: patent US20040266732A1, “Therapeutic agents, methods, and treatments” (priority 2002, published 2004)
